What was measured:
Experiment in all cases: relative viability (nuclei count vs DMSO), 5 days (fraction); higher = more cells survive
[1] = compound: C#Cc1cccc(Nc2ncnc3cc(OCCOC)c(OCCOC)cc23)c1 [Erlotinib] + CCNC(=O)c1noc(-c2cc(C(C)C)c(O)cc2O)c1-c1ccc(CN2CCOCC2)cc1 [Luminespib] (partner 0.01 µM)
How it was run: (§1)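 Lung cancer cell lines in 1536-well plates got either a single drug or a fixed anchor-drug dose together with five library-drug doses (not always all listed) in √10 steps, by pin tool, on the day after seeding. Nuclei were counted after 5 days, and relative viability is the treated-to-vehicle ratio of nuclei counts. Values are medians of duplicate plates.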

[2] = compound: O=C(Nc1c[nH]nc1-c1nc2ccc(CN3CCOCC3)cc2[nH]1)NC1CC1 [AT9283] + COc1cccc2cc(-c3nc([C@H]4CC[C@H](C(=O)O)CC4)n4ncnc(N)c34)[nH]c12 [OSI-027] (partner 0.5 µM)
How it was run: as §1

[3] = compound: C#Cc1cccc(Nc2ncnc3cc(OCCOC)c(OCCOC)cc23)c1 [Erlotinib] + CC(C)C[C@H](NC(=O)[C@H](Cc1ccccc1)NC(=O)c1cnccn1)B(O)O [Bortezomib] (partner 0.002 µM)
How it was run: as §1

[4] = compound: O=C(Nc1c[nH]nc1-c1nc2ccc(CN3CCOCC3)cc2[nH]1)NC1CC1 [AT9283] + Cc1nc(NC(=O)N2CCC[C@H]2C(N)=O)sc1-c1ccnc(C(C)(C)C(F)(F)F)c1 [Alpelisib] (partner 2 µM)
How it was run: as §1

[5] = compound: O=C(Nc1c[nH]nc1-c1nc2ccc(CN3CCOCC3)cc2[nH]1)NC1CC1 [AT9283] + Nc1ncn([C@H]2C[C@H](O)[C@@H](CO)O2)c(=O)n1 [Decitabine] (partner 2 µM)
How it was run: as §1

Cell Line | relative viability ([1]; first compound 0.02 µM) | relative viability ([1]; first compound 0.2 µM) | relative viability ([1]; first compound 0.6325 µM) | relative viability ([1]; first compound 2 µM) | relative viability ([2]; first compound 0.003 µM) | relative viability ([2]; first compound 0.03 µM) | relative viability ([2]; first compound 0.09487 µM) | relative viability ([2]; first compound 0.3 µM) | relative viability ([3]; first compound 0.02 µM) | relative viability ([3]; first compound 0.2 µM) | relative viability ([3]; first compound 0.6325 µM) | relative viability ([3]; first compound 2 µM) | relative viability ([4]; first compound 0.003 µM) | relative viability ([4]; first compound 0.03 µM) | relative viability ([4]; first compound 0.09487 µM) | relative viability ([4]; first compound 0.3 µM) | relative viability ([5]; first compound 0.003 µM) | relative viability ([5]; first compound 0.03 µM) | relative viability ([5]; first compound 0.09487 µM) | relative viability ([5]; first compound 0.3 µM)
NCI-H2347 | 1.25 | 0.557 | 0.441 | 0.902 | 0.444 | 0.427 | 0.404 | 0.296 | 0.759 | 0.873 | 1.26 | 0.659 | 1.16 | 1.04 | 0.606 | 0.451 | 0.624 | 0.61 | 0.471 | 0.372
NCI-H2405 | 0.6 | 0.655 | 0.598 | 0.755 | 0.685 | 0.654 | 0.533 | 0.262 | 1.12 | 1.03 | 0.998 | 0.938 | 0.881 | 0.551 | 0.236 | 0.15 | 0.732 | 0.725 | 0.381 | 0.24
NCI-H3122 | 0.0866 | 0.089 | 0.0884 | 0.107 | 0.94 | 0.645 | 0.201 | 0.115 | 1.01 | 1.03 | 1.05 | 1.05 | 0.786 | 0.764 | 0.28 | 0.227 | 0.472 | 0.397 | 0.296 | 0.136
PC-3 [JPC-3] | 0.64 | 0.363 | 0.406 | 0.306 | 0.741 | 0.791 | 0.591 | 0.517 | 0.796 | 0.455 | 0.401 | 0.324 | 1.02 | 0.997 | 0.621 | 0.527 | 0.837 | 0.798 | 0.695 | 0.541
PC-14 | 0.154 | 0.134 | 0.147 | 0.0981 | 0.878 | 0.745 | 0.0842 | 0.08 | 0.67 | 0.259 | 0.21 | 0.249 | 0.992 | 0.893 | 0.554 | 0.1 | 0.199 | 0.157 | 0.0721 | 0.0727
RERF-LC-KJ | 1.32 | 0.993 | 1.23 |  | 0.609 | 0.544 | 0.308 | 0.279 | 1.04 | 1.01 | 0.854 | 0.762 | 0.808 | 0.738 | 0.441 | 0.251 | 0.746 | 0.477 | 0.282 | 0.224
SK-LU-1 | 0.21 | 0.208 | 0.188 | 0.202 | 0.366 | 0.276 | 0.22 | 0.165 | 1.07 | 1.55 | 1.61 | 0.984 | 1.2 | 0.426 | 0.304 | 0.254 | 0.62 | 0.423 | 0.415 | 0.407
SW 1573 | 0.327 | 0.217 | 0.214 | 0.183 | 0.534 | 0.352 | 0.146 | 0.134 | 1.08 | 1.02 | 0.934 | 0.879 | 0.766 | 0.441 | 0.226 | 0.249 | 0.394 | 0.175 | 0.171 | 0.143
UMC-11 | 1.05 | 0.93 | 1.32 | 1.11 | 0.559 | 0.17 | 0.152 | 0.167 | 0.934 | 0.837 | 0.738 | 0.586 | 1.01 | 0.148 | 0.122 | 0.146 | 0.57 | 0.217 | 0.261 | 0.201
